Counter-ions that a name gives are not always drawn.
Tested on: IL-2 production
Experiment: Inhibition of IL-2 production in PHA-activated Jurkat cells (ELISA)
Type: cell-based
Settings: PHA 2.5 μg/mL, IL-2 ELISA
Procedure: Jurkat cells were placed in a 96 well plate (0.5 million cells per well in 1% FBS medium) then a test compound of this invention was added at different concentrations. After 10 minutes, the cells were activated with PHA (final concentration 2.5 μg/mL) and incubated for 20 hours at 37° C. under CO2. The final volume was 200 μL. Following incubation, the cells were centrifuged and the supernatants collected and stored at −70° C. prior to assaying for IL-2 production. A commercial ELISA kit (IL-2 Eli-pair, Diaclone Research, Besancon, France) was used to detect production of IL-2, from which dose response curves were obtained. The IC50 value was calculated as the concentration at which 50% of maximum IL-2 production after stimulation was inhibited versus a non-stimulation control.

Which IC50 (Homo sapiens, Jurkat, 20 h) does the source give for `Cc1cc(-c2nccs2)sc1-c1ccc(NC(=O)c2c(F)cccc2F)cc1` [Compound 2, 2,6-difluoro-N-(4-(3-methyl-5-(thiazol-2-yl)thiophen-2-yl)phenyl)benzamide] here?
Its IC50 is 7 nM.

How did the IC50 (Homo sapiens, Jurkat, 20 h) turn out when `Cc1sc(-c2cccnc2)cc1-c1ccc(NC(=O)c2c(F)cccc2F)cc1` [Compound 7, 2,6-difluoro-N-(4-(2-methyl-5-(pyridin-3-yl)thiophen-3-yl)phenyl)benzamide] was run?
The IC50 was 3 nM.

`COc1ncc(Cl)cc1-c1cc(-c2ccc(NC(=O)c3c(F)cccc3F)cc2)c(C)s1` [Compound 13, N-(4-(5-(5-chloro-2-methoxypyridin-3-yl)-2-methylthiophen-3-yl)phenyl)-2,6-difluorobenzamide] was tested. Which IC50 (Homo sapiens, Jurkat, 20 h) did it give?
The IC50 was 73 nM.

How did the IC50 (Homo sapiens, Jurkat, 20 h) turn out when `Cc1sc(-c2cnco2)cc1-c1cnc(NC(=O)c2c(F)cccc2F)cn1` [Compound 4, 2,6-difluoro-N-(5-(2-methyl-5-(oxazol-5-yl)thiophen-3-yl)pyrazin-2-yl)benzamide] was run?
The IC50 was 15 nM.

`Cc1sc(-c2cnccc2Cl)cc1-c1ccc(NC(=O)c2c(F)cccc2F)cc1` [Compound 19, N-(4-(5-(4-chloropyridin-3-yl)-2-methylthiophen-3-yl)phenyl)-2,6-difluorobenzamide] was tested. Which IC50 (Homo sapiens, Jurkat, 20 h) did it give?
Its IC50 is 3 nM.

For `COc1ccncc1-c1cc(-c2ccc(NC(=O)c3c(F)cccc3F)cc2)c(C)s1` [Compound 20, 2,6-difluoro-N-(4-(5-(4-methoxypyridin-3-yl)-2-methylthiophen-3-yl)phenyl)benzamide], which IC50 (Homo sapiens, Jurkat, 20 h) is on record?
Its IC50 is 19 nM.

How did the IC50 (Homo sapiens, Jurkat, 20 h) turn out when `Cc1ccncc1-c1cc(-c2ccc(NC(=O)c3c(F)cccc3F)cc2)c(C)s1` [Compound 12, 2,6-difluoro-N-(4-(2-methyl-5-(4-methylpyridin-3-yl)thiophen-3-yl)phenyl)benzamide] was run?
The IC50 was 9 nM.

For `Cc1sc(-c2cnco2)cc1-c1ccc(NC(=O)c2c(F)cccc2F)nc1` [Compound 5, 2,6-difluoro-N-(5-(2-methyl-5-(oxazol-5-yl)thiophen-3-yl)pyridin-2-yl)benzamide], which IC50 (Homo sapiens, Jurkat, 20 h) is on record?
The IC50 was 10 nM.

How did the IC50 (Homo sapiens, Jurkat, 20 h) turn out when `Cc1sc(-c2cncn2C)cc1-c1ccc(NC(=O)c2c(F)cccc2F)nc1` [Compound 17, 2,6-difluoro-N-(5-(2-methyl-5-(1-methyl-1H-imidazol-5-yl)thiophen-3-yl)pyridin-2-yl)benzamide] was run?
Its IC50 is 25 nM.

Which IC50 (Homo sapiens, Jurkat, 20 h) does the source give for `Cc1sc(-c2cnco2)cc1-c1ccc(NC(=O)c2c(F)cccc2F)cn1` [Compound 10, 2,6-difluoro-N-(6-(2-methyl-5-(oxazol-5-yl)thiophen-3-yl)pyridin-3-yl)benzamide] here?
Its IC50 is 31 nM.

`CCn1cncc1-c1cc(-c2ccc(NC(=O)c3c(F)cccc3F)cc2)c(C)s1` [Compound 25, N-(4-(5-(1-ethyl-1H-imidazol-5-yl)-2-methylthiophen-3-yl)phenyl)-2,6-difluorobenzamide] was tested. Which IC50 (Homo sapiens, Jurkat, 20 h) did it give?
Its IC50 is 27 nM.

How did the IC50 (Homo sapiens, Jurkat, 20 h) turn out when `Cc1sc(-c2nccs2)cc1-c1cnc(NC(=O)c2c(F)cccc2F)cn1` [Compound 15, 2,6-difluoro-N-(5-(2-methyl-5-(thiazol-2-yl)thiophen-3-yl)pyrazin-2-yl)benzamide] was run?
The IC50 was 10 nM.

`Cc1sc(-c2cnc[nH]2)cc1-c1cnc(NC(=O)c2c(F)cccc2F)cn1` [Compound 22, N-(5-(5-(1H-imidazol-5-yl)-2-methylthiophen-3-yl)pyrazin-2-yl)-2,6-difluorobenzamide] was tested. Which IC50 (Homo sapiens, Jurkat, 20 h) did it give?
The IC50 was 152 nM.

Which IC50 (Homo sapiens, Jurkat, 20 h) does the source give for `Cc1cc(-c2ccno2)sc1-c1ccc(NC(=O)c2c(F)cccc2F)cc1` [Compound 1, 2,6-difluoro-N-(4-(5-(isoxazol-5-yl)-3-methylthiophen-2-yl)phenyl)benzamide] here?
The IC50 was 3 nM.

Which IC50 (Homo sapiens, Jurkat, 20 h) does the source give for `Cc1sc(-c2cncn2C)cc1-c1cnc(NC(=O)c2c(F)cccc2F)cn1` [Compound 21, 2,6-difluoro-N-(5-(2-methyl-5-(1-methyl-1H-imidazol-5-yl)thiophen-3-yl)pyrazin-2-yl)benzamide] here?
The IC50 was 27 nM.

`Cc1sc(-c2cncn2C)cc1-c1ccc(NC(=O)c2c(F)cccc2F)cc1` [Compound 23, 2,6-difluoro-N-(4-(2-methyl-5-(1-methyl-1H-imidazol-5-yl)thiophen-3-yl)phenyl)benzamide] was tested. Which IC50 (Homo sapiens, Jurkat, 20 h) did it give?
The IC50 was 6 nM.

For `Cc1cnccc1C(=O)Nc1ccc(-c2cc(-c3cnco3)sc2C)cn1` [Compound 18, 3-methyl-N-(5-(2-methyl-5-(oxazol-5-yl)thiophen-3-yl)pyridin-2-yl)isonicotinamide], which IC50 (Homo sapiens, Jurkat, 20 h) is on record?
Its IC50 is 17 nM.

Which IC50 (20 hours, hydrochloride) does the source give for `Cc1sc(-c2cncn2C)cc1-c1ccc(NC(=O)c2c(F)cccc2F)cc1` [Compound 24, 2,6-difluoro-N-(4-(2-methyl-5-(1-methyl-1H-imidazol-5-yl)thiophen-3-yl)phenyl)benzamide hydrochloride] here?
Its IC50 is 3 nM.

For `Cc1sc(-c2nnco2)cc1-c1ccc(NC(=O)c2c(F)cccc2F)cc1` [Compound 9, 2,6-difluoro-N-(4-(2-methyl-5-(1,3,4-oxadiazol-2-yl)thiophen-3-yl)phenyl)benzamide], which IC50 (Homo sapiens, Jurkat, 20 h) is on record?
Its IC50 is 9 nM.

Which IC50 (Homo sapiens, Jurkat, 20 h) does the source give for `Cc1cc(-c2cccnc2)sc1-c1ccc(NC(=O)c2c(F)cccc2F)cc1` [Compound 6, 2,6-difluoro-N-(4-(3-methyl-5-(pyridin-3-yl)thiophen-2-yl)phenyl)benzamide] here?
Its IC50 is 2 nM.

`Cc1sc(-c2cnc[nH]2)cc1-c1ccc(NC(=O)c2c(F)cccc2F)cc1` [Compound 11, N-(4-(5-(1H-imidazol-5-yl)-2-methylthiophen-3-yl)phenyl)-2,6-difluorobenzamide] was tested. Which IC50 (Homo sapiens, Jurkat, 20 h) did it give?
The IC50 was 16 nM.

`Cc1sc(-c2cnc[nH]2)cc1-c1ccc(NC(=O)c2c(F)cccc2F)nc1` [Compound 16, N-(5-(5-(1H-imidazol-5-yl)-2-methylthiophen-3-yl)pyridin-2-yl)-2,6-difluorobenzamide] was tested. Which IC50 (Homo sapiens, Jurkat, 20 h) did it give?
Its IC50 is 50 nM.

How did the IC50 (Homo sapiens, Jurkat, 20 h) turn out when `Cc1sc(-c2nccs2)cc1-c1ccc(NC(=O)c2c(F)cccc2F)nc1` [Compound 14, 2,6-difluoro-N-(5-(2-methyl-5-(thiazol-2-yl)thiophen-3-yl)pyridin-2-yl)benzamide] was run?
The IC50 was 8 nM.

Which IC50 (Homo sapiens, Jurkat, 20 h) does the source give for `Cc1cc(-c2cncn2C)sc1-c1ccc(NC(=O)c2c(F)cccc2F)cc1` [Compound 3, 2,6-difluoro-N-(4-(3-methyl-5-(1-methyl-1H-imidazol-5-yl)thiophen-2-yl)phenyl)benzamide] here?
The IC50 was 8 nM.

With `Cc1sc(-c2nccs2)cc1-c1ccc(NC(=O)c2c(F)cccc2F)cc1` [Compound 8, 2,6-difluoro-N-(4-(2-methyl-5-(thiazol-2-yl)thiophen-3-yl)phenyl)benzamide] as the compound, how does the IC50 (Homo sapiens, Jurkat, 20 h) read?
The IC50 was 6 nM.

Reference: US20130236481A1, “HETEROCYCLE -ARYL COMPOUNDS FOR INFLAMMATION AND IMMUNE-RELATED USES” (SYNTA PHARMACEUTICALS CORP., priority 2007, published 2013)
